This passage reports Km results from paper PMC2994021, “Isolation of cytoplasmic NADPH-dependent phenol hydroxylase and catechol-1,2-dioxygenase from Candida tropicalis yeast” (Interdisciplinary Toxicology, 2010).

One may read the Km as the concentration of substrate that gives half-maximal velocity.

For this test, the system named is T1, NADPH-dependent phenol hydroxylase.
T1 construct: native enzyme purified from cytosol of phenol-grown yeast (DEAE-Sepharose, PEG 6000, Sepharose 4B), close to homogeneity
The test is described as follows: HPLC of phenol consumption, Michaelis-Menten kinetics. The note with it: with NADPH; same Km from catechol formation; read-out: apparent Km. It is filed as biochemical, Candida tropicalis.

Each structure is given as a SMILES string.

`Oc1ccccc1` [phenol]: the Km is 450 µM.
